According to article PMC8103899, “Allyl Isothiocyanate: A TAS2R38 Receptor-Dependent Immune Modulator at the Interface Between Personalized Medicine and Nutrition” (Frontiers in Immunology, 2021):
Like-named read-outs stand apart in the source and are kept apart here.

Experiments:
IL-1β = IL-1β release of LPS stimulated PBMC (ELISA); type: cell-based, human; details: LPS activated PBMC
Procedure: (§1) PBMC (1x10^6/mL) cultured in RPMI 1640 medium supplemented with 10% heat-inactivated fetal calf serum, 2 mM L-glutamine, 100 U/ml penicillin/streptomycin were stimulated with 0.5 ng/ml CD3/CD28 MAbs and exposed to the test compounds. After 24 h, supernatants were collected and stored at -80°C until analysis using the human MACSplex cytokine 12-kit (Miltenyi Biotec GmbH, Bergisch Gladbach, Germany) according to manufacturer’s protocol to quantify cytokine secretion. Supernatants were also used for photometric quantification by the human TNF-alpha or IL-1β ELISA Ready-Set-Go kit from eBIoscience (Frankfurt, Germany) according to the manufacturer’s instructions.
Figure 5 In bacterial LPS stimulated PBMC, AITC triggers MAPK activation and TNF-α inhibition in dependence of the TAS2R38 genotype. PBMC were exposed to AITC or 0.01% DMSO (SC) together with 100 pg/mL LPS. (A) Representative immunoblots are given. Densitometric analysis was done to quantify the immunoblots using Quantity One software (Bio-Rad, Munich, Germany) and normalized against β-actin, which was used as loading control. (B, C) Cytokine secretion at 3 and 24 h was analyzed using ELISA kits. […] Results were calculated relative to the corresponding solvent control (SC, 0.01% DMSO). Significance of difference was determined compared to the respective SC by one-way ANOVA, *p < 0.05, **p < 0.01.

TRPA1 = TRPA1 overexpressing cells, read-out: EC50 for the activation of TRPA1, cited from earlier work
TAS2R38-PAV receptor = tested on: TAS2R38-PAV receptor; set-up: method as in PMID 20022913; details: cited from earlier work
NO production = assay: Nitric oxide detection by flow cytometry (DAF-FM) in PBMC; type: cell-based, human; details: for NO production increase: monocytes, 5h
Procedure: PBMC (0.25x10^6) were suspended in DMEM medium and exposed to solvent control, AITC or 100 µM of the NO-donor SNAP (positive control) in 96-well plates for 30-270 min in a humidified incubator (5% CO2, 37°C). After that, cells were then loaded with 0.5 µM DAF-FM diacetate prepared in HBSS buffer for another 30 min. DAF-FM loading at this low concentration allows reducing the background fluorescence and improving the signal to noise ratio in a single cell ([34]). After incubation, the cells were washed twice with PBS, followed by 30 min. de-esterification of the intracellular diacetates in the dark at room temperature. Fluorescence signals (ex 488 nm, em 530± 30 nm) were monitored using a FACSCalibur™ flow cytometer. The median fluorescence intensity (MFI) of each sample was calculated using FlowJo software (Ashland, Oregon, USA). DAF-FM-DA has a detection limit of about 5 nM NO ([35]).
Figure 3 AITC stimulates NO production and exerts bactericidal activity in dependence of the TAS2R38 haplotype. PBMC were isolated from AVI/AVI or PAV/PAV genotype subjects and (A) exposed to 0.01% DMSO (SC), AITC, the NO-donor SNAP (positive control), or the NO scavenger cPTIO for the indicated time points. Then, 0.5 µM DAF-FM diacetate was added for 30 min. Fluorescence signals (ex 488 nm, em 530± 30 nm) were monitored using a FACSCalibur™. The median fluorescence intensity (MFI) of each sample was calculated using FlowJo software (Ashland, Oregon, USA). A representative histogram of one PAV/PAV subject is shown on the top, (B) incubated with E. coli K-12 at MOI 0.5 and exposed to 0.01% DMSO (SC) or AITC for 120 min at 37°C. Cell membrane potential depolarization was determined by staining bacteria with 1 µg/ml DiBAC4(3) for 10 min, in the dark at room temperature. Representative scattergrams of E. coli K-12 and PBMC treated with E. coli K-12 are given. An FSC/SSC plot was first made and E. coli K-12 cells gated. The population was copied to a SSC/DiBAC4(3)-scatterplot identifying the percentage of depolarized bacteria. Bars are mean value + SD, *p < 0.05, **p < 0.01. Significance of difference was calculated relative to the respective control by one-way ANOVA. […]

[1] = tested on: TNF-α, IL-1β, IL-2, IL-6, IL17-A, IL-10; assay: Cytokine secretion of CD3/CD28 mAbs stimulated PBMC (MACSplex / ELISA); type: cell-based, human
Procedure: as §1
Figure 6 In […] PBMC, AITC triggers MAPK activation as well as TNF-α release in dependence of the TAS2R38 genotype. PBMC were exposed to AITC or 0.01% DMSO (SC) together with 0.5 ng/mL CD3/CD28 MAbs for 24h (A, B). Cytokine secretion was analyzed using the human MACSplex cytokine 12-kit or ELISA kits. Results are mean values + SD and given as fold of the solvent control. Significance of difference was determined compared to the respective SC as determined by one-way ANOVA, *p < 0.05, **p < 0.01.

TNF-alpha mRNA = TNF-alpha mRNA expression in LPS stimulated PBMC (qRT-PCR); type: cell-based, human; details: LPS stimulated PBMC from PAV/PAV subjects, transient
Procedure: Figure 5 In bacterial LPS stimulated PBMC, AITC triggers MAPK activation and TNF-α inhibition in dependence of the TAS2R38 genotype. PBMC were exposed to AITC or 0.01% DMSO (SC) together with 100 pg/mL LPS. (A) Representative immunoblots are given. Densitometric analysis was done to quantify the immunoblots using Quantity One software (Bio-Rad, Munich, Germany) and normalized against β-actin, which was used as loading control. (B, C) Cytokine secretion at 3 and 24 h was analyzed using ELISA kits. (D) Time kinetic of TNF-α mRNA expression. Results are means + SD and given as fold of the solvent control. Results were calculated relative to the corresponding solvent control (SC, 0.01% DMSO). Significance of difference was determined compared to the respective SC by one-way ANOVA, *p < 0.05, **p < 0.01.

[2] = set-up: method as in PMID 26317351; details: rats, oral dosing; cited from earlier work

## C=CCN=C=S [AITC, allyl isothiocyanate]
IL-1β
  release of IL-1β: suppressed in both AVI/AVI and PAV/PAV groups
TRPA1; ref 45
  EC50: […]
TRPA1; ref 46
  EC50: […]
TAS2R38-PAV receptor; HEK293T-Gα16gust44 cells transiently transfected
  activation of TAS2R38 taster variant among 25 TAS2Rs: selectively triggered the taster variant
TAS2R38-PAV receptor
  activation of the TAS2R38-PAV receptor: activated
TAS2R38-PAV receptor; heterologous expressed TAS2R38-PAV, in vitro
  threshold concentration: […]
NO production; AITC ≥ 10 µM, 1h, PAV/PAV (not AVI/AVI)
  NO in monocyte cell population: insignificant increase
NO production; PAV/PAV vs AVI/AVI, NO only detected after 5h at 100 µM AITC
  NO production in the lymphocyte population: no differential regulation
NO production; AVI/AVI, 100 µM AITC
  NO production increase: 41%
NO production; PAV/PAV, 3 µM AITC
  NO production increase: 46%
[1]; CD3/CD28 mAbs stimulated PBMC
  modulation of IL-2, IL-6, IL17-A and IL-10: not clearly genotype dependent
[1]; CD3/CD28 mAbs stimulated cells, AVI/AVI group, 24h
  effect on TNF-α: No effect
[1]; CD3/CD28 mAbs stimulated cells, PAV/PAV, 24h
  TNF-α secretion: Similar, but less strong effects
[1]; CD3/CD28 mAbs stimulated, PAV/PAV vs. AVI/AVI cells
  IL-1β: differential inhibition
TNF-alpha mRNA
  inhibition of TNF-alpha mRNA expression: 50%
[2]
  time to peak plasma level: ≤ 0.5 h
